Here are results for one compound from PMC6611227 (Frontiers in Microbiology, 2019).

The experiment concerns the target T1, StDHODH (dihydroorotate dehydrogenase) (Solanum tuberosum, UniProt M1BCR0, I273V/I299V/P120T/P359Q).
T1 construct: gene LOC102578881
T1 sequence (M1BCR0 70-460 P120T/I273V/I299V/P359Q): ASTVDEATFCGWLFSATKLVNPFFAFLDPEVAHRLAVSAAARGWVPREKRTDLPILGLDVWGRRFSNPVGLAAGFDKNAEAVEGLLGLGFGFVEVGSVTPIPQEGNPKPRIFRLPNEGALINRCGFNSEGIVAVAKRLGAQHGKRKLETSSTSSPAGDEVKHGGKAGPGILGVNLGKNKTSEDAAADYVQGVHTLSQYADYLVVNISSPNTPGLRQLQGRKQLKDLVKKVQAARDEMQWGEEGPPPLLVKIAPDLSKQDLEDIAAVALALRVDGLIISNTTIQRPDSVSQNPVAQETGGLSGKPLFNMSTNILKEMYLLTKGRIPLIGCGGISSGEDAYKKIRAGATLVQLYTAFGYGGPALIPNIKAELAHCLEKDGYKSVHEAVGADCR
Nature of the experiment: biochemical. As to conditions: read-out: Activity % StDHODH.

Take `COc1c(-c2ccccc2)ccc(NC(=O)C(C#N)=C(C)O)c1Cl` [compound 19, N-(3-chloro-2-methoxybiphenyl-4-yl)-2-cyano-3-hydroxybut-2-enamide]: the activity at 500 µM was determined as 0%.
